According to a melting point compilation (Tetko et al.):

| Compound | melting point |
| --- | --- |
| O=C(O)CNc1ccccc1 | 128 °C |
| COc1cc(N)c(C#N)cc1OC | 99 °C |
| CC(C#N)c1ccccc1[N+](=O)[O-] (stereo not given) | 51 °C |
| CCOC(=O)CCC(NP(=O)(OC)C(C)NC(=O)CCCCN1C(=O)c2ccccc2C1=O)C(=O)OCC (stereo not given) | 79 to 82 °C |
| CN1CCOc2cc(C=O)ccc21 | 70 to 71 °C |
| CN(C(=O)Cl)c1ccccc1 | 88.5 °C |
| NC(=O)C=CC(F)(F)F | 147 to 150 °C |
| CC(C)(C)OC(=O)N1CCN(Cc2cccc(C(=O)O)c2)CC1 | 173 to 175 °C |
| COc1ccc2c3c(n(C)c2c1)CCCC3 | 96 °C |
| CC(=O)Nc1ccc(C(C)=O)cc1Br | 140 °C |
| N#C/C(=N\Nc1cc(Cl)ccc1Cl)c1nc2ccccc2[nH]1 | 300 to 302 °C |
| FC(F)(F)c1cccc(Cl)c1 | -56 °C |
| Cc1cc(C)c(N)c([N+](=O)[O-])c1 | 67 °C |
| O=C(O)c1ccc(CN2CCS(=O)(=O)CC2)cc1 | 222 to 223 °C |
| CCCCC1C(=O)NC(=O)N(C2CCCCC2)C1=O (stereo not given) | 84 °C |
| Nc1c(C=NNc2ccccc2)ccc2c1C(=O)c1ccccc1C2=O | 209 to 211 °C |
| CC1(C)C2CCC1(CS(=O)(=O)Cl)C(=O)C2 (stereo not given) | 66 °C |
| CC(C)CCCC(C)C1CCC2C3CC(=O)C4CC(O)CCC4(C)C3CCC12C (stereo not given) | 140 to 142 °C |
| Cc1cc(C)cc(O[Si]23OCCN(CCO2)CCO3)c1 | 220 °C |

| Compound | melting point |
| --- | --- |
| COC(=O)c1cccc(N)c1 | 52 to 55 °C |
| CC(=CCNc1ncnc2nc[nH]c12)CO | 208 °C |
| ClCCN(CCCl)c1ccc2ccccc2c1 | 55 °C |
| N=C1C=C(NC(=O)c2ccccc2)/C(=N/C(=O)c2ccccc2)C=C1NC(=O)c1ccccc1 | > 330 °C |
| O=C1C(c2ccccc2)=C(c2ccccc2)c2ccccc21 | 151 to 155 °C |
| CC(C)C(Nc1ccc(C(F)(F)F)cc1Cl)C(=O)OC(C#N)c1cccc(Oc2ccccc2)c1 (stereo not given) | 25 °C |
| COC(=O)[C@H]1C[C@]2(Sc3ccccc3)O[C@@]1(c1ccc(OC)cc1)c1c2cc(Cl)nc1Cl | 118 °C |
| CCCCCCCOC(=O)CC | -50.9 °C |
| O=C(O)CCCCCCCO | 51 to 57 °C |
| COC(=O)C(C)(C)C1=CCC2(C)C(CCC3C4CCC(O)C4(C)CCC32)C1 (stereo not given) | 150 °C |
| CCCCOC(=O)C=CC(=O)OCCCC | -85 °C |
| C=CCC(C(=O)NC(N)=O)C(C)C (stereo not given) | 194 °C |
| CC1(C)SC2C(NC(=O)COc3ccccc3)C(=O)N2C1C(=O)O (stereo not given) | 124 °C |
| CS(=O)(=O)c1csc(C(=O)Cl)c1Cl | 181 to 185 °C |
| O=C1CC2CCC1C2 (stereo not given) | 95 °C |
| NC(CC(F)(F)F)C(=O)O (stereo not given) | 256 to 258 °C |
| O=C(O)Cn1c(C(F)(F)F)nc2ccccc21 | 248 °C |
| FC(F)OCC(F)(F)C(F)(F)F | -107 °C |
| Cc1nn(C)c(Cl)c1I | 64 to 65 °C |

| Compound | melting point |
| --- | --- |
| CCCC(O)C(O)CO (stereo not given) | 66 °C |
| O=C=Nc1ccc(CCl)cc1 | 33 °C |
| COc1ccc(C(O)(c2ccc(OC)cc2)c2ccc(OC)cc2)cc1 | 79 °C |
| O=C(NC(CO)C(O)c1ccc([N+](=O)[O-])cc1)C(Cl)Cl (stereo not given) | 150 °C |
| CC(=O)N1CCc2cccc(N)c21 | 157 to 160 °C |
| CC(Cc1cc(=O)c2c3c(c4ccccc4c2o1)OC1CC(=O)OC31)O[Si](C)(C)C(C)(C)C (stereo not given) | 188 °C |
| CCOc1c(Br)cc(Br)cc1C=O | 87 to 87.5 °C |
| CC(C)[C@H](N)P(=O)(O)O | 270 °C |
| CC(C)CCCC(C)C1CCC2C3CC=C4CC(OC(=O)Cc5ccc(N(CCCl)CCCl)cc5)CCC4(C)C3CCC12C (stereo not given) | 90 °C |
| OCC1OC(n2cnc3c(NCc4ccccc4)ncnc32)C(O)C1O (stereo not given) | 184 to 186 °C |
| COc1cc(CCl)cc(OC)c1 | 46 to 48 °C |
| Cc1ccc2c(c1)CCCN2 | 35 °C |
| O=c1c(Br)c(Br)cnn1-c1ccccc1 | 143 to 144 °C |
| CCc1ccc(O)c(O)c1 | 39 °C |
| S=C=NCc1ccc(Cl)cc1Cl | 26 to 28 °C |
| COc1cccc(-c2ccc(C(=O)O)o2)c1 | 169 to 170 °C |
| CCCCCCC(N)C(=O)O (stereo not given) | 270 °C |
| Cn1c(=O)c(C2=Nc3ccccc3SC(c3cccs3)C2)c(O)c2ccccc21 (stereo not given) | 224 °C |

Results, then the compound that gave them:

| melting point | Compound |
| --- | --- |
| 215 °C | CC(=O)Oc1ccc2cc(OC(C)=O)ccc2c1 |
| 119 °C | O=C(COC(=O)c1ccccc1)c1ccccc1 |
| 79 °C | O=C(O)c1cc(C(F)(F)F)ccc1C(F)(F)F |
| 80 °C | CC(=O)c1cccc(C(C)=O)n1 |
| 103 °C | CC(=O)C(=CNc1ccc(C)cc1)Cc1ccccc1 |
| 114 to 116 °C | Cc1noc(-c2ccc(CBr)cc2)n1 |
| -40 °C | C1CCC2OC2C1 (stereo not given) |
| 287 to 289 °C | O=C1c2ccccc2C(=O)c2c1ccc(O)c2O |
| 273 to 276 °C | O=[N+]([O-])c1ccc(N/N=C2\Cc3c2ccc2ccccc32)c([N+](=O)[O-])c1 |
| 221 to 225 °C | CN1C(=N)NC(=O)C1Cc1ccc(O)cc1 (stereo not given) |
| 206 °C | N[C@@H](CSCC(=O)O)C(=O)O |
| -80 °C | C=COC(=O)CC |
| 108 °C | CC1(C)C(C=C(Cl)C(F)(F)F)C1C(=O)O (stereo not given) |
| 150 °C | O=C(O)C1=Cc2ccccc2OC1 |
| 128 to 130 °C | COc1ccc(CC(=O)O)cc1O |
| -136 °C | FCF |
| 156 °C | O=C(OC(C(=O)c1ccc2c3c(cccc13)CC2)c1ccccc1)c1ccccc1 (stereo not given) |

| melting point | Compound |
| --- | --- |
| 146 °C | CCOC(=O)C(Cl)(Cc1cc(CC(Cl)(C(=O)OCC)C(=O)OCC)c([N+](=O)[O-])cc1[N+](=O)[O-])C(=O)OCC |
| 114 °C | COc1cc(CCNC(=O)CC(C)C)ccc1OCc1ccccc1 |
| 154 °C | O=C(Nc1cccc(Cl)c1)C(C(F)(F)F)C(F)(F)F |
| 244 °C | O=C(NCCNC(=O)c1ccccc1)c1ccccc1 |
| -96 °C | CCCCCCCCCCC(C)Br (stereo not given) |
| 81 °C | Nc1ccc(-n2cccc2)cc1 |
| 118 °C | CC12CCC(C1(C)C)C(CC(Br)=Cc1ccccc1)(C1(CC(Br)=Cc3ccccc3)C(=O)C3(C)CCC1C3(C)C)C2=O (stereo not given) |
| 248 °C | O=C1c2ccccc2C(=O)c2c(NCCO)ccc(NCCO)c21 |
| -81.5 °C | Fc1cccc(C(F)(F)F)c1 |
| 200 to 201 °C | CC(/C=C(\C)c1ccc(-c2ccccc2)cc1)=NNS(=O)(=O)c1ccc([N+](=O)[O-])c([N+](=O)[O-])c1 |
| 177 to 178 °C | CC1CCC2(C)C3=C(C(=O)C4(CC4C)C(O)C3=O)C(O)C(O)C2C1C (stereo not given) |
| 181 °C | CCOc1ccc(NC(=O)C(C(F)(F)F)C(F)(F)F)cc1 |
| -10 °C | O=Cc1ccc(F)cc1 |
| 158 °C | Cc1ccccc1NC(=S)Nc1ccccc1C |
| 73 to 76 °C | Cc1nc(-c2ccc(CBr)cc2)cs1 |
| 124 to 125 °C | Cc1nc(CC(=O)O)cs1 |
| -26.2 °C | Cc1csc(C)c1C |
